In PMC13183420, “Sustained Action of Imapextide, A Glucagon-Like Peptide-1 Receptor Antagonist, in Healthy Volunteers” (The Journal of Clinical Endocrinology and Metabolism, 2025):

Assays:
healthy volunteers = assay: Safety and tolerability, drug-drug interaction part; type: in vivo, human; settings: n = 14; for TRAE, Acetaminophen-related: acetaminophen 1000 mg; for TRAE, Rosuvastatin-related: rosuvastatin 10 mg
Protocol: This phase 1, randomized, double-blind, placebo-controlled study (NCT06036784) enrolled healthy adults (aged 18-65 years) with a body mass index of 18 to 30 kg/m^2, stable body weight for 3 months or longer, and without diabetes. Potential participants were ineligible if they had type 1 or type 2 diabetes or prediabetes (based on medical history, relevant concomitant medications [including oral or injectable antidiabetic medications], fasting plasma glucose concentrations ≥100 mg/dL or glycated hemoglobin concentrations ≥5.7% [American Diabetes Association thresholds for diabetes and prediabetes ([18])]).
(§1) The DDI portion of the study included 1 cohort of 14 HVs and consisted of 2 study periods. […] Blood samples were also collected to measure clearance of the endogenous biomarker for hepatic OATP inhibition, coproporphyrin-I (CP-I), to assess potential inhibition of OATP1B1/3 by imapextide. […] The primary objective of the DDI portion was to evaluate the PK of rosuvastatin and acetaminophen in the presence and absence of imapextide.
The primary objective of the SAD and MAD portions of the study was to evaluate the safety and tolerability of imapextide; safety was also evaluated in the DDI portion. Safety assessments included incidence and severity of treatment-emergent adverse events (TEAEs), changes in physical examination findings, clinical laboratory abnormalities (serum chemistry, hematology, urinalysis, and coagulation; abnormalities were defined as deviation from the laboratory normal range), and potential effect on vital sign measures. All blood samples for safety analyses were collected after an overnight fast (≥8 hours). If present, data on ISRs were collected using a dedicated form and rated on severity according to the US Food and Drug Administration toxicity scale for vaccines (for details on severity grading, see Supplementary Table S1) ([20], [21]). All ISRs were evaluated, regardless of whether they were reported as TEAEs by the investigator. In the 30-mg-R cohort, participants with ISRs grade 2 or worse underwent a dermatology consultation, including a potential skin biopsy at the discretion of the dermatologist.

OATP1B1/OATP1B3 = assay: Drug-drug interaction: rosuvastatin PK in presence or absence of imapextide; type: in vivo, human; settings: plasma, n = 14, statistic in brackets not given
Source text: as §1
Imapextide was also examined as a perpetrator of OATP1B1/3, which would affect the hepatic clearance of rosuvastatin and CP-I. PK assessments for rosuvastatin included Cmax, tmax, AUC from 0 to 72 hours (AUC0-72), and AUCinf. PK assessments for CP-I included Cmax, tmax, AUC0-72, and AUC from 0 to 108 hours (AUC0-108).

[1] = DDI Period 2 (RBX + APAP + Imapextide 45 mg)
[2] = Period 1 (RBX 10 mg + APAP 1000 mg), no imapextide
[3] = Period 2 (RBX 10 mg + APAP 1000 mg + imapextide 45 mg given 2 days before)

Row | Structure (SMILES) | TRAE, Acetaminophen-related (healthy volunteers; DDI Period 1 (RBX + APAP)) | TRAE, Acetaminophen-related (healthy volunteers; [1]) | AUC0-72 (OATP1B1/OATP1B3; [2]) | AUC0-inf (OATP1B1/OATP1B3; [2]) | Cmax (OATP1B1/OATP1B3; [2]) | tmax (OATP1B1/OATP1B3; [2]) | AUC0-72 (OATP1B1/OATP1B3; [3]) | AUC0-inf (OATP1B1/OATP1B3; [3]) | Cmax (OATP1B1/OATP1B3; [3]) | tmax (OATP1B1/OATP1B3; [3]) | TRAE, Rosuvastatin-related (healthy volunteers; DDI Period 1 (RBX + APAP)) | TRAE, Rosuvastatin-related (healthy volunteers; [1])
1 | CC(=O)Nc1ccc(O)cc1 [Acetaminophen, acetaminophen] | 0 n (%) | 0 n (%) | – | – | – | – | – | – | – | – | – | –
2 | CC(C)c1nc(N(C)S(C)(=O)=O)nc(-c2ccc(F)cc2)c1/C=C/[C@@H](O)C[C@@H](O)CC(=O)O [Rosuvastatin, rosuvastatin] | – | – | 27,660 (56.1) h*pg/mL | 36,090 (50.3) h*pg/mL | 2307 (85.1) pg/mL | 2.80 (84.7) h | 31,730 (48.3) h*pg/mL | 32,490 (49.4) h*pg/mL | 2962 (61.9) pg/mL | 2.72 (38.1) h | 0 n (%) | 0 n (%)
